Results reported in patent US11779548B2, “Arylfluorosulfate compounds and methods” (THE SCRIPPS RESEARCH INSTITUTE, priority 2014, dated 2023).

What was measured:
[1] = tested on: A549, MCF-7, SKBR3 and HT-29 cells; assay: Cancer cell growth inhibition assay, comparison over the cell line panel; type: cell-based; settings: 20 μM and 2 μM, dose-response studies
Procedure: (§1) Experimental compounds were dissolved in DMSO at 500-fold of the desired final maximum test concentration. Then it was 10-fold serially diluted to other concentrations in DMSO. All aliquots were frozen prior to use.
(§2) Another same plate of cells was inoculated for the evaluation of time 0. […] And another plate of cancer cells was refreshed with medium containing either DMSO (0.2%, as control) or test compounds (1 or 1F) in seven different concentrations from 20 μM. After incubation for 72 hours, cell viabilities were evaluated by CellTiter-Glo™ assay to obtain Vcontrol and Vtest. The growth inhibition percentage is defined as (Vtest−V0)/(Vcontrol−V0)×100%. IC50 values were obtained from dose-response curves. All tests included 3 repeats.
as §2, with “Then the viabilities of cancer cells for time 0 were evaluated by CellTiter-Glo™ assay to obtain V0. Another” for “And another”, “(25” for “(1”, “25F)” for “1F)”, “7 to 9” for “seven”, “μM (2 μM for MCF-7 cells). Then cells were” for “μM. After”, “hours, before” for “hours,”

[2] = tested on: MCF-7 cells; assay: Cancer cell growth inhibition assay; type: cell-based; settings: Homo sapiens, MCF7, read-out: IC50 MCF-7 Cells
Procedure: as §1, §2
(§3) Cancer cells were inoculated into a 96-well plate in 100 μL medium at a plating density of 3,000 cells/well. […] Then cells were incubated for 6 days with one change of medium containing test compounds on day 3, before cell viabilities were evaluated by CellTiter-Glo™ Assay to obtain Vcontrol and Vtest. […]
(§4) Another same plate of cells was inoculated for the evaluation of time 0. […] Then the viabilities of cancer cells for time 0 were evaluated by CellTiter-Glo™ assay to obtain V0. […] Then cells were incubation for 72 hours, before cell viabilities were evaluated by CellTiter-Glo™ assay to obtain Vcontrol and Vtest. […]

[3] = tested on: A549 cells; assay: Cancer cell growth inhibition assay; type: cell-based; settings: Homo sapiens, A549, read-out: IC50 A549 Cells
Procedure: as §1, §2, §3, §4

[4] = tested on: SKBR3 cells; assay: Cancer cell growth inhibition assay; type: cell-based; settings: Homo sapiens, SK-BR-3, 72 h, read-out: IC50 SKBR3 Cells
Procedure: as §1, §2
as §2, with “Then the viabilities of cancer cells for time 0 were evaluated by CellTiter-Glo™ assay to obtain V0. Another” for “And another”, “(25” for “(1”, “25F)” for “1F)”, “7 to 9” for “seven”, “μM (2 μM for MCF-7 cells). Then cells were” for “μM. After”, “hours, before” for “hours,”

[5] = tested on: HT-29 cells; assay: Cancer cell growth inhibition assay; type: cell-based
Procedure: as §1, §2
as §2, with “Then the viabilities of cancer cells for time 0 were evaluated by CellTiter-Glo™ assay to obtain V0. Another” for “And another”, “(25” for “(1”, “25F)” for “1F)”, “7 to 9” for “seven”, “μM (2 μM for MCF-7 cells). Then cells were” for “μM. After”, “hours, before” for “hours,”

[6] = tested on: microtubule network in HT-29 cells; assay: Immunofluorescence microscopy of HT-29 microtubule disruption; type: cell-based; settings: HT-29, 24 h, anti-tubulin-FITC, confocal imaging; 25F 1 μM and 0.1 μM
Procedure: To assess the mechanism of fluorosulfate 25F, HT-29 cells were treated with 25F followed by staining with anti-tubulin-FITC antibody. […] In fact, glucuronidation of 25 on the phenol group by uridine 5-diphosphoglucuronosyl transferases (UGTs) has been previously identified as a mechanism of resistance evolved by HT-29 colon cancer cells and hepatocellular cancer cells.
After incubation at 37° C. for 24 hours, cells were treated with media containing DMSO (0.2%), 25 (1 μM, 0.1 μM) or 25F (1 μM, 0.1 μM, 0.01 μM) for 24 hours. Then cells were gently washed in PBS, fixed for 20 min with 4% paraformaldehyde in PBS and permeabilised in 0.5% Triton X-100™ surfactant. Following washes in PBS containing 0.1% Tween™ (PBST) surfactant, cells were blocked in 5% bovine serum albumin diluted in PBST. Then cells were incubated with mouse monoclonal anti-tublin-FITC antibody (DM1A) (1:100 in PBS) for 3 hours. After washing with PBST, cells were incubated with DAPI (1:2000) for 30 min and mounted in PBS for confocal analysis. Images were captured by Nikon™ spinning disk confocal microscopy. All images in each experiment were collected on the same day using identical parameters.

[7] = tested on: MCF-7 cells; assay: Two-dose cell viability assay (CellTiter-Glo); settings: MCF-7, 500 nM, 72 h, in situ generated product
Procedure: (§5) The cytotoxicity of fluorosulfation products 1F to 39F and their phenol precursors was assessed in cancer cell lines using a double-dose cell viability test. […] The difference between the cytotoxicity of a fluorosulfation product and that of its phenol precursor reflects the changes in compounds' anti-cancer activity after the SuFEx-based derivatization (FIG. 3, A). […] The corresponding phosphate of combretastatin A4 is a tumor vascular targeting agent, and the water-soluble prodrug of combretastatin A4.
(§6) 6C. Two-Dose Cell Viability Assay to Compare the Cytotoxicities of Fluorosulfation Products (1F to 39F) and Phenol Parents (1 to 39).
(§7) MCF-7 and A549 cancer cells were inoculated into 96-well plates in 100 μL medium at a plating density of 5,000 cells/well. After cell inoculation, the plates were incubated at 37° C. and 5% CO2. After 24 hours, all wells were refreshed with medium containing DMSO (0.2%, as vehicle control), phenols (20 μM or 500 nM) or in situ generated fluorosulfation products (20 μM or 500 nM). Then cancer cells were maintained at 37° C. and 5% CO2 for 72 hours before cell viability (Vcontrol, Vphenol and Vfluorosulfation product) were evaluated by CellTiter-Glo™ Assay following manual of protocol. […] The cytotoxicity difference between a fluorosulfation product and its phenol precursor is quantified as (Vphenol/Vcontrol×100%)−(Vfluorosulfation product/Vcontrol×100%).

[8] = tested on: A549 cells; assay: Two-dose cell viability assay (CellTiter-Glo); settings: A549, 20 μM and 500 nM, 72 h
Procedure: as §5, §6, §7

## COc1ccc(/C=C\c2cc(OC)c(OC)c(OC)c2)cc1OS(=O)(=O)F [25F, (Z)-2-Methoxy-5-(3,4,5-trimethoxystyryl)phenyl sulfurofluoridate]
[1]
  activity to inhibit cells at high concentrations compared with parent drug 25: stronger activities
[2]
  IC50: 15.6 nM
[3]
  IC50: 113 nM
[4]
  IC50: 1.8 nM
[5]; Homo sapiens, HT-29, 72 h, read-out: IC50 HT-29 Cells
  IC50: 70 nM
[5]; drug resistant colon cancer cell line HT-29
  fold lower IC50 (increase in potency) versus compound 25 on HT-29: 70 fold
[6]
  microtubule structure of treated cells: completely lost microtubule structure
[7]
  increase of cytotoxicity relative to phenol precursor: 8%
[8]
  cytotoxicity compared with phenol precursor: significantly stronger
